Key:
[1] = system: human monocyte-derived dendritic cells; experiment: FACS: binding of misfolded proteins and BiP to human monocyte-derived dendritic cells; format: cell-based
Description: In vitro generation of peripheral blood human monocyte-derived dendritic cells, and analyses for binding of misfolded proteins and BiP
Human DCs are generated from non-proliferating precursors selected from peripheral blood mononuclear cells (PBMCs), essentially by published methods (Sallustro and Lanzavecchia [1994], J. Exp. Med. 179 1109-1118). Relative abundant presence of CD1a, CD32, CD36, CD40, CD54, CD86, HLA-DR and CD206 and relative low content of CD14 positive, CD16 positive, CD64 positive, CD80 positive, CD83 positive and CD163 positive cells serve as a quality measure for the immature DCs. After obtaining the immature DCs upon stimulation with GM-CSF and IL-4, direct binding of misfolded proteins and BiP to the DCs is assessed by incubating 200.000 cells (2*10^6 cells/ml) for 30 minutes at 4° C. under metabolic arrested state, with 1) PBS, 2) 58 μg/ml BiP (830 nM), 4) 250 μg/ml BSA-AGE (3.6 μM), 5) BSA-AGE+BiP, 6) 250 μg/ml oxLDL, 7) oxLDL+BiP, 8) mixture of BiP-binding peptides 6BB8-11, 13 (see Table 5), 125 μg/ml+BiP, and 8) 62.5 μg/ml Aβ16-22, 62.5 μg/ml Aβ25-35+BiP. After the incubation and careful washing of the cells, binding of BiP, BSA-AGE and oxLDL is assessed with FACS, using primary antibodies monoclonal anti-FLAG antibody, monoclonal anti-glycated human fibronectin antibody 4B5 and rabbit serum with anti-human apoliprotein B-100 antibody (Dade Behring, Newark, Del., USA), and the appropriate FITC- or PE-labeled secondary antibody. Mean fluorescence intensity (MFI) ratio's are determined by measuring background fluorescence.

HUVECs = experiment: FACS: binding of misfolded proteins and BiP to HUVECs; format: cell-based, human
Procedure: For these experiments HUVECs were isolated by trypsinization. After trypsinization cells were collected in RPMI 1640, containing P/S and 10% FCS and centrifuged. After centrifugation cells were resuspended in RPMI medium without FCS at a concentration of 1.250.000 cells/250 μl. Individual 4-ml tubes (polypropylene, Greiner), containing 250 μl cell suspensions were made. To each tube 75 μl of a sample, containing either, • a. buffer (PBS) only, or • b. 25 μl PBS+50 μl BiP (1.16 mg/ml), or • c. 50 μl buffer with 25 μl oxLDL (1 mg/ml), or • d. 74 μl buffer with 1 μl BSA-AGE (25 mg/ml), or • e. 24 μl PBS+1 μl BSA-AGE (25 mg/ml)+50 μl BiP (1.16 mg/ml), or • f. 25 μl oxLDL (1 mg/ml)+50 μl BiP (1.16 mg/ml), • g. 1.6 μl dIgIV-65 (20 mg/ml)+73.4 μl PBS • h. […]
was added. Subsequently, the cells were incubated with the sample for approximately 30 minutes at 4° C. Next, cells were pelleted by centrifugation and the supernatant was discarded. Cells were washed subsequently with FACS buffer (PBS/0.5% BSA/0.05% m/v NaN3) at 4° C. and resuspended in FACS-buffer at approximately 1*10^5 cells/100 μl for subsequent analysis. Cell death was determined by adding 3 μl 7-aminoactinomycin D (7AAD) solution (prepared according to standard procedures). Binding of sample BSA-AGE (see elsewhere in this application for preparation details) was determined with anti-AGE monoclonal antibody 4B5 (10 μg/ml) and, after washing, with goat anti-mouse PE secondary antibodies (Jackson Immunoresearch, West Grove, USA). Binding of BSA-AGE was also assessed using the intrinsic fluorescence of BSA-AGE in the PE channel. Binding of oxidized LDL (oxLDL, oxidized for 56% following incubation with FeSO4; specific enhancement of Thioflavin T fluorescence) was determined with rabbit serum with anti-ApoB100 polyclonal antibodies at a concentration of 160 μg/ml and, after washing the cells, with FITC-labelled goat anti-rabbit antibodies (1:200, Jackson). Binding of dIgIV-65 was assessed by using anti-Human IgG antibody. BiP binding was determined using the earlier mentioned anti-FLAG antibody (M2, Sigma-Aldrich).

[2] = system: freshly isolated human platelets; experiment: Crossbeta-induced human platelet aggregation (aggregometer); format: cell-based
Procedure: Ex vivo Human Blood Platelet Aggregation Assay
The influence of crossbeta structure binding chaperones on blood platelet aggregation induced by crossbeta structure or crossbeta structure comprising pathogens is tested with washed platelets or with platelet rich plasma in an aggregometric assay. Freshly drawn human aspirin free blood is mixed gently with citrate buffer to avoid coagulation. Blood is spinned for 15′ at 150*g at 20° C. and supernatant is collected; platelet rich plasma (PRP). Buffer with 2.5% trisodium citrate, 1.5% citric acid and 2% glucose, pH 6.5 is added to a final volume ratio of 1:10 (buffer-PRP). After spinning down the platelets upon centrifugation for 15′ at 330*g at 20° C., the pellet is resuspended in HEPES-Tyrode buffer pH 6.5. Prostacyclin is added to a final concentration of 10 ng/ml, and the solution is centrifuged for 15′ at 330*g at 20° C., with a soft brake. The pellet is resuspended in HEPES-Tyrode buffer pH 7.2 in a way that the final platelet number is adjusted to 200,000-250,000 platelets/μl. Platelets are kept at 37° C. for at least 30′, before use in the assays, to ensure that they are in the resting state. Platelets of approximately five donors are isolated separately.
For the aggregometric assays, platelet solution is added to a glass tube and prewarmed to 37° C. A stirring magnet is added and rotation is set to 900 rpm, and the apparatus (Whole-blood aggregometer, Chrono-log, Havertown, Pa., USA) is blanked. A final volume of 1/10 of the volume of the platelet suspension is added, containing the agonist of interest and/or the premixed antagonist of interest, prediluted in HEPES-Tyrode buffer pH 7.2. Aggregation is followed in time by measuring the absorbance of the solution, that is decrease in time upon platelet aggregation. As a positive control, either 10 μg/ml collagen (Kollagenreagens Horm, NYCOMED Pharma GmbH, Linz, Austria; lot 502940), or 5 μM of synthetic thrombin receptor activating compound TRAP. In tests to analyse the effect of chaperones, 10-100 μg/ml glycated haemoglobin or 10-100 μg/ml amyloid-β is used to induce platelet aggregation. Aggregation is recorded for at least 15′.
Platelet aggregation-studies with freshly isolated human platelets were performed as described above. For aggregation studies, platelets of four separate donors were used on subsequent days.

[3] = system: freshly isolated human platelets; experiment: as above; format: cell-based; conditions: 8 μM TRAP

Binding of BiP to HUVECs (MFI ratio) (HUVECs; BiP alone): 1.4 | Binding of BiP to ECs (HUVECs; co-incubated with dIgIV-86): neither BiP did bind
Substance: BiP: Recombinant human HSP70 family chaperone BiP with C-terminal linker, FLAG-tag and His-tag, expressed in HEK 293E cells
Binding of BiP to DCs (MFI ratio) ([1]; BiP alone, 58 μg/ml, 30 minutes at 4° C.): 1.4 | Binding to DCs (MFI ratio), BiP ([1]; FACS, human dendritic cells, detection of BiP, signal divided by background signal): 1.4 | Platelet aggregation by protein alone, without activator [2]: did not induce platelet aggregation | Misfolded protein induced platelet aggregation ([2]; activators Aβ42t=0, HbAGE, BSA-AGE, four donors): potently inhibited | Platelet aggregation induced by amyloid-β1-42 ([2]; donor a): strongly inhibited | Platelet aggregation induced by crossbeta BSA-AGE ([2]; donor a): strongly inhibited | Platelet aggregation induced by Aβ1-42 ([2]; donor b, Aβ42t=0 26.7 μg/ml): inhibited | Platelet aggregation induced by crossbeta BSA-AGE ([2]; donor b, BSA-AGE 33.3 μg/ml): strongly inhibited | Aβ42 induced platelet activation ([2]; donor c): abolish | BSA-AGE induced platelet aggregation ([2]; donor c): inhibit | HbAGE induced platelet aggregation ([2]; donor c): inhibited | HbAGE induced platelet aggregation ([2]; donor d, BiP 58 μg/ml, sRAGE 37.4 μg/ml, HbAGE 80 μg/ml): inhibits | TRAP-induced platelet aggregation [3]: unaffected
